Reference: ChEMBL document CHEMBL1157114, “Synthesis and structure-activity relationships of a series of (1H-pyrazol-4-yl)acetamide antagonists of the P2X7 receptor” (Bioorg Med Chem Lett, 2010)
Converted amounts (≈) assume the structure as drawn.

Experiments:
P2X purinoceptor 7 [1] = biological target: T1, P2X purinoceptor 7 (Homo sapiens, UniProt Q99572); test: Inhibition of human P2X7 receptor assessed as inhibition of ethidium bromide accumulation
T1 sequence (Q99572 whole entry): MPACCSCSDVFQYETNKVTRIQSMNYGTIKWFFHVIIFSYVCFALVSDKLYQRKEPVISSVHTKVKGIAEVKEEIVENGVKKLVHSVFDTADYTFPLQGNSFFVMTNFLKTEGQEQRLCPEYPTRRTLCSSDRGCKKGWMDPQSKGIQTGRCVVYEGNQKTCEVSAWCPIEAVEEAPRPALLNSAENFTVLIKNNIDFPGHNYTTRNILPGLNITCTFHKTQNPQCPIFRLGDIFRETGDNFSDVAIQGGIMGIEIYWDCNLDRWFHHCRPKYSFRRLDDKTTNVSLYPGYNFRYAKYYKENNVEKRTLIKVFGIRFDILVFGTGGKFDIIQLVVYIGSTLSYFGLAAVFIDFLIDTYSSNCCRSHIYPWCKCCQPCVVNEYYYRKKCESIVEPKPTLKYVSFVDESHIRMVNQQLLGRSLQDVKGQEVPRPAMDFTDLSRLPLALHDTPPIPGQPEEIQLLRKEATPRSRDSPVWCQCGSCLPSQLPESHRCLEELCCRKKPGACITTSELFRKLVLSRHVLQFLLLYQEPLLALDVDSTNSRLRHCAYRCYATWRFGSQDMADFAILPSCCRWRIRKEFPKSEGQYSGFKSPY

[2] = biological target: T2, P2X purinoceptor 7 (Homo sapiens) (UniProt Q99572); test: Inhibition of human P2X7 receptor assessed as inhibition of ethidium bromide accumulation relative to control
T2 sequence (whole entry): T1 sequence (Q99572 whole entry)

P2X purinoceptor 7 [3] = biological target: T3, P2X purinoceptor 7 (Rattus norvegicus, UniProt Q64663); test: Inhibition of rat P2X7 receptor assessed as inhibition of ethidium bromide accumulation
T3 sequence (Q64663 whole entry): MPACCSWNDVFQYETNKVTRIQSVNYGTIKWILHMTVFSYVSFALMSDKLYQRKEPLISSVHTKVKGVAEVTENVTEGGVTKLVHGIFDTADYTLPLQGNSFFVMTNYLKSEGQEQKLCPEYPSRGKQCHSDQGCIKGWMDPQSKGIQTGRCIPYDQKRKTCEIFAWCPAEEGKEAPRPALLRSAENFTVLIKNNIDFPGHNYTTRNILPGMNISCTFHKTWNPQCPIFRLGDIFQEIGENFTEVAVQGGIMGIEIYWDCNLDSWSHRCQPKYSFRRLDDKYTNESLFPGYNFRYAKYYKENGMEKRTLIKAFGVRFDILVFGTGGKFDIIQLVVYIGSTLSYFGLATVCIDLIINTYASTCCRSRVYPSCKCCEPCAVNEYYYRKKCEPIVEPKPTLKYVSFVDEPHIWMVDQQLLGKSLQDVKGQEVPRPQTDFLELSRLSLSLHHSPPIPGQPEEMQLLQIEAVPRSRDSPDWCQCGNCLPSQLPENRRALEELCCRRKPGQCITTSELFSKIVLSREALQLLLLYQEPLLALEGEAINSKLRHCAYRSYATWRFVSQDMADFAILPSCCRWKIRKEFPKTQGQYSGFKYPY

[4] = Clearance in rat blood at 1 mg/kg, iv; format: ADME, organism-based; set-up: dose 1 mg/kg, route intravenous
[5] = Half life in rat blood at 1 mg/kg, iv; format: ADME, organism-based; set-up: dose 1 mg/kg, route intravenous
[6] = Volume of distribution at steady state in rat blood at 1 mg/kg, iv; format: ADME, organism-based; set-up: dose 1 mg/kg, route intravenous; settings: read-out: Vdss
[7] = Tmax in rat blood at 3 mg/kg, po; format: ADME, organism-based; set-up: dose 3 mg/kg, route oral
[8] = Cmax in rat blood at 3 mg/kg, po; format: ADME, organism-based; set-up: dose 3 mg/kg, route oral
Rattus norvegicus = test: Dose normalized AUC in rat blood at 3 mg/kg, po; format: ADME, organism-based; set-up: dose 3 mg/kg, route oral; settings: in vivo
[9] = Oral bioavailability in rat blood at 3 mg/kg, po; format: ADME, organism-based
[10] = Aqueous solubility of the compound; format: physicochemical

Structure (SMILES) | IC50 (P2X purinoceptor 7 [1]) [nM] | Imax [2] [%] | other results
Cc1nn(-c2ccccc2)c(C)c1CC(=O)NC(C)(C)c1ccccc1 | 126 | 100 | –
Cc1nn(-c2ccccc2)c(C)c1CC(=O)NC1CCCCCC1 | 158 | 100 | –
Cc1nn(-c2ccccc2)c(C)c1CC(=O)NCc1ccccc1 | > 1000 | 100 | –
Cc1nn(-c2ccccc2)c(C)c1CC(=O)N(C)Cc1ccc(F)cc1Cl | > 1000 | 100 | –
Cc1oc(-c2ccccc2)nc1CC(=O)NCc1ccc(F)cc1Cl | > 1000 | 100 | –
Cc1nn(-c2ccccc2)c(C)c1Cc1nnc(Cc2ccc(Cl)cc2Cl)o1 | 1260 | 100 | –
Cc1sc(-c2ccccc2)nc1CC(=O)NCc1ccc(F)cc1Cl | > 1000 | 100 | –
Cc1c(CC(=O)NCc2ccc(F)cc2Cl)cnn1-c1ccccc1 | 158 | 100 | –
Cc1nn(-c2ccccc2)c(C)c1CC(=O)NCc1ccccc1Cl | 1000 | 100 | –
Cc1nc(-c2ccccc2)sc1CC(=O)NCc1ccc(F)cc1Cl | > 1000 | 100 | –
Cc1nn(-c2ccccc2)c(C)c1NC(=O)NCc1ccc(F)cc1Cl | 251 | 100 | –
Cc1nn(-c2ccccc2)c(C)c1CC(=O)NCc1cccc(Cl)c1Cl | 25.1 | 100 | –
Cc1nn(-c2ccccc2)c(C)c1CC(=O)NCc1cc(Cl)cc(Cl)c1 | > 631 | 100 | –
O=C(CN1CC(=O)N(c2ccccc2)C1=O)NCc1ccc(F)cc1Cl | – | 100 | –
COc1ccccc1CNC(=O)Cc1c(C)nn(-c2ccccc2)c1C | > 1000 | 100 | –
Cc1cccnc1CNC(=O)Cc1c(C)nn(-c2ccccc2)c1C | > 1000 | 100 | –

Further lines, with some results ahead:

IC50 (P2X purinoceptor 7 [1]) [nM] | Imax [2] [%] | Structure (SMILES) | other results
20 | 100 | Cc1n[nH]c(C)c1CC(=O)NCc1ccc(F)cc1Cl | IC50 (P2X purinoceptor 7 [3]): 158 nM; clearance [4]: 15 mL/min/kg; half-life [5]: 1.7 h; Vd [6]: 1.6 L/kg; Tmax [7]: 1 h; Cmax [8]: 2920 nM; AUC (Rattus norvegicus): 58 kg·min/L; bioavailability [9]: 90%; solubility [10]: 732 µg/mL (≈ 2480 µM)
> 1000 | 100 | Cc1nn(-c2ccccc2)c(C)c1CNC(=O)Cc1ccc(F)cc1Cl | –
63.1 | 100 | Cc1nn(-c2ccc(Cl)cc2)c(C)c1CC(=O)NCc1ccc(F)cc1Cl | –
316 | 100 | Cc1nn(CCN(C)C)c(C)c1CC(=O)NCc1ccc(F)cc1Cl | –
158 | 100 | Cc1nn(C)c(C)c1CC(=O)NCc1ccc(F)cc1Cl | –
316 | 100 | Cc1nn(Cc2ccccc2)c(C)c1CC(=O)NCc1ccc(F)cc1Cl | –
79.4 | 100 | Cc1nn(-c2ccccc2)c(C)c1CC(=O)NCc1ccc(Cl)cc1Cl | –
10 | 100 | Cc1nn(-c2ccc(C(N)=O)cc2)c(C)c1CC(=O)NCc1ccc(F)cc1Cl | –
200 | 100 | Cc1nn(CCO)c(C)c1CC(=O)NCc1ccc(F)cc1Cl | –
126 | 100 | Cc1nn(Cc2cccnc2)c(C)c1CC(=O)NCc1ccc(F)cc1Cl | –
39.8 | 100 | Cc1nn(-c2ccccc2)c(C)c1CC(=O)NCc1ccc(F)cc1Cl | IC50 (P2X purinoceptor 7 [3]): 100 nM; solubility [10]: 110 µg/mL (≈ 296 µM)
158 | 100 | Cc1nn(-c2ccccc2)cc1CC(=O)NCc1ccc(F)cc1Cl | –
50.1 | 100 | Cc1nc(-c2ccccc2)n(C)c1CC(=O)NCc1ccc(F)cc1Cl | –
50.1 | 100 | Cc1nn(-c2ncccn2)c(C)c1CC(=O)NCc1ccc(F)cc1Cl | –
100 | 100 | COc1ccc(-n2nc(C)c(CC(=O)NCc3ccc(F)cc3Cl)c2C)cc1 | –
> 1000 | 100 | Cc1nn(-c2ccccc2)c(C)c1C(=O)NCc1ccc(F)cc1Cl | –
